Row | SMILES | melting point
1 | COc1ccc(CCCn2ccnc2S)cc1 | 108 to 109 °C
2 | CC(=O)c1ccc(-c2ccc(N(c3ccccc3)c3ccccc3)cc2)cc1 | 97 to 98 °C
3 | Cc1cccc(NC(=O)NC2N=C(c3ccccc3F)c3ccccc3N(CCOC(=O)N3CC4CCC(CC4)C3)C2=O)c1 (racemic) | 169 to 171 °C
4 | CCCCc1oc2ccccc2c1/C=N/OCCCOc1ccc(CC(=O)O)cc1 | 181 to 182 °C
5 | COc1ccc2c(Cl)cc(-c3ccc(C)cc3)nc2c1 | 129 to 131 °C
6 | CC(C)(C)c1ccc(NC(=O)OCC2(COC(=O)Nc3ccc(C(C)(C)C)cc3)CSc3ccccc3C2=O)cc1 | 78 to 85 °C
7 | COc1ccc(-c2cccn2-c2ccc(S(N)(=O)=O)cc2)cc1 | 183 to 184 °C
8 | C#CCc1c(C)nc2c(NCc3ccccc3Cl)cccn12 | 115 to 116 °C
9 | Cc1cc(C)c(C(=O)O)c(C)c1C | 164 to 167 °C
10 | CN(C)C=Nc1nc(OCc2ccc(F)cc2)ncc1F | 113 to 115 °C
11 | CC(=O)N1N=C2C(=Cc3cccc(C(F)(F)F)c3)CS(=O)(=O)CC2C1c1cccc(C(F)(F)F)c1 (centres undefined) | 200 to 202 °C
12 | Clc1ccc(-c2c(Cc3nc4ccccc4s3)cnn2-c2ccccc2)cc1 | 135 to 137 °C
13 | COC12CC(c3nnc(-c4cncc(Br)c4)o3)CN(C)C1Cc1c[nH]c3cccc2c13 (centres undefined) | 155 to 157 °C
14 | CCN1c2ncc(COc3cccc(OC)c3)cc2C(=O)N(C)c2ccc(Cl)nc21 | 95 to 97 °C
15 | O=S(=O)(CC(F)(F)F)N(Cc1cccnc1)c1cccc(Oc2ccccc2O)c1 | 57.5 to 60 °C
16 | CCCC(=O)Oc1ccc(OC(=O)CCC)c(C#N)c1C#N | 86 to 87 °C
17 | CSc1cc(OCCC[Si](C)(C)C)c(Cl)cc1[N+](=O)[O-] | 51 to 53 °C
18 | Cc1oc(-c2ccccc2)nc1COc1ccc(Cn2cc(CCC(=O)O)c(O)n2)cc1 | 197 to 198 °C
19 | CN(C)C(=O)COc1ccc(-c2ccc(C3COC(c4c(F)cccc4F)=N3)cc2)cc1 (centres undefined) | 78 to 80 °C
20 | COc1ccc(-c2cc(=O)n(CC3CCCC3)nc2-c2ccc(OC)cc2)cc1 | 130 to 131 °C
21 | COC(=O)CNC(=O)CC(=O)CBr | 76 to 77 °C
22 | CCN(CC)C(=O)n1nc(C(C)(C)C)cc1SC | 55 to 56 °C
23 | CCCCc1nc2cc(Cl)c(Cl)c(C(=O)O)c2n1Cc1ccccc1Cl | 240 °C
24 | COC1=NS(=O)N=C1OC | 137 to 139 °C
25 | CC(C)[Si](C#Cc1c2ccccc2c2ccc3c(C#C[Si](C(C)C)(C(C)C)C(C)C)c4ccccc4c4ccc1c2c34)(C(C)C)C(C)C | 318 to 321 °C

Row | SMILES | melting point
26 | CC(=O)NC(=O)OCc1nc(C(C)C)c(Sc2cc(Cl)cc(Cl)c2)n1Cc1ccncc1 | 135 to 137 °C
27 | CCNc1ncc(Nc2ccc(Cl)cc2)nc1-n1nc(C)cc1C | 122 to 124 °C
28 | CCCCNS(=O)(=O)CC(O)C(O)C(CC1CCCCC1)NC(=O)c1cccnc1 (centres undefined) | 61 to 64 °C
29 | CC(=O)Oc1cccc2c1N=CC1CCCN1C2=O (centres undefined) | 143 to 146 °C
30 | N#CC(=O)c1ccc(Cl)c(Cl)c1 | 70 to 71 °C
31 | NC(=O)c1sc2ncnc(-c3cccc(NC(=O)Cc4ccccc4)c3)c2c1N | 255 to 258 °C
32 | Nc1c(Cl)cc(Nc2ncnc3cnc(N[C@H]4CC[C@H](C(=O)N5CCOCC5)CC4)nc23)cc1Cl | 204 to 207 °C
33 | N#Cc1ccc(C(=C2C3CC4CC(C3)CC2C4)c2nc[nH]n2)cc1 | 105 °C
34 | O=C1CNCCN1c1ccc([N+](=O)[O-])cc1 | 150 to 153 °C
35 | CCCCCCNc1nc(N)nc2c1ncn2C1CC(F)C(CO)O1 (centres undefined) | 50 to 51 °C
36 | CC(C)(C)C(=O)OC1CCCCC1=O (centres undefined) | 35 to 36 °C
37 | NC(=O)c1sc2ncnc(-c3cc4c(c(OCc5ccccc5)c3)CCO4)c2c1N | 239 °C
38 | COCC1CN(c2ccc(C3CCCCC3)cc2)C(=O)O1 (racemic) | 86 to 88 °C
39 | CCN(c1nc(C)cc(-c2ccccc2C(F)(F)F)n1)c1ccc(C(C)C)cc1Br | 101 to 102 °C
40 | N=CN1C(C(=O)NN)C(Sc2ccccc2)=CC(=O)N1c1ccccc1 (centres undefined) | 236 to 238 °C
41 | CCOc1nc2c(cnn2CC)nc1C#N | 73 to 74 °C
42 | COC(=O)c1cc(C(=O)c2c(C)c(-c3cccc(OCC(=O)O)c3)c3ccccn23)ccc1N | 160 °C
43 | O=C(O)c1cccc(CC2COc3ccc(OCc4ccc5ccccc5n4)cc3C2O)c1 (centres undefined) | 193 to 195 °C
44 | COc1cc2c(c3c1OC(C)(C)C3)C(c1cccc(N3CCNS3(=O)=O)c1)=NC(C)(C)C2 | 145 to 147 °C
45 | CC(=O)Nc1ccc(NCCO)c([N+](=O)[O-])c1 | 186 °C
46 | O=C(COc1cccc2ccccc12)NC(Cc1ccccc1)C(=O)CSCc1ccco1 (centres undefined) | 104 to 106 °C
47 | O=C(O)CCCc1cc2nc(Cl)ccc2n1S(=O)(=O)c1ccc(OC(F)(F)F)cc1 | 168 °C
48 | N#Cc1ccc(Oc2ccc(CC(=O)O)cc2)nc1 | 148 to 151 °C
49 | O=C(O)c1cn(-c2cc([N+](=O)[O-])c(F)cc2F)c2cc(F)c(F)cc2c1=O | > 270 °C

Source: a melting point compilation (Tetko et al.; mined from patent text by program, amines drawn as free bases though some values may be those of a salt)
